Measurements taken from US8044198B2, “Sirtuin modulating compounds” (Sirtris Pharmaceuticals, Inc., priority 2005, dated 2011).

Target: T1, SIRT1 (Homo sapiens, UniProt Q96EB6)
T1 sequence (Q96EB6 1-747): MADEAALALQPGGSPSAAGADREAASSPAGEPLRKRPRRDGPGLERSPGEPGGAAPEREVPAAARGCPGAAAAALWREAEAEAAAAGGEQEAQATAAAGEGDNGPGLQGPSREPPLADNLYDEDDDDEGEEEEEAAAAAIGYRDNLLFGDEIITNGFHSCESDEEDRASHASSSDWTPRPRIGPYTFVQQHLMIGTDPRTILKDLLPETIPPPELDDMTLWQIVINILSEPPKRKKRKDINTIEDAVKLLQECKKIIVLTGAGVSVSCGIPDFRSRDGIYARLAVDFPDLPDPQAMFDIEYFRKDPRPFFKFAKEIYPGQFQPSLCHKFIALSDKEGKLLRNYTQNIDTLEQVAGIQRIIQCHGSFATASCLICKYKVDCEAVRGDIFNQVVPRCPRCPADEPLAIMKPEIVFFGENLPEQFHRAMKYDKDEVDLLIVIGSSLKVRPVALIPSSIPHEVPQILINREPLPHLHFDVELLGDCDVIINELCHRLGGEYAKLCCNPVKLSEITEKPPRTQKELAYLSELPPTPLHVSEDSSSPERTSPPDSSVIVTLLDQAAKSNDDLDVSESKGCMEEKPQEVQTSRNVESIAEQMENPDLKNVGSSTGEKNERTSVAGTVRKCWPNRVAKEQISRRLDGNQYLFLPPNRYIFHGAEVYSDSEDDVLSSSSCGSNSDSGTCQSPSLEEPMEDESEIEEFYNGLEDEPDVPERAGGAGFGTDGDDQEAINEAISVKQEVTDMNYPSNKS
Experiment: SIRT1 mass spectrometry (MS) based deacetylation assay; for FOLD ACT. MS: test concentration or dose not given here
Type: biochemical
Conditions: for EC50: SIRT1 activation, mass spectrometry assay, read-out: ED50 MS ASSAY

[1] = fold activation of SIRT1 as determined by MS
[2] = fold activation of SIRT1, mass spectrometry assay

SMILES | EC50 | FOLD ACT. MS [1] | FOLD ACT. MS [2]
COc1cccc(C(=O)Nc2cccc(-c3nc4cccnc4s3)c2)c1 [Compound 212] | 5 to 50 µM | B (B (Fold Activation <250%)) | –
COc1ccc(C(=O)Nc2cccc(-c3nc4cccnc4s3)c2)c(OC)c1 [Compound 213] | < 5 µM | B (B (Fold Activation <250%)) | –
COc1cccc(C(=O)Nc2cccc(-c3nc4cccnc4s3)c2)c1OC [Compound 214] | 5 to 50 µM | B (B (Fold Activation <250%)) | –
COc1cc(OC)cc(C(=O)Nc2cccc(-c3nc4cccnc4s3)c2)c1 [Compound 215] | < 5 µM | B (B (Fold Activation <250%)) | –
COc1ccc(C(=O)Nc2cccc(-c3nc4cccnc4s3)c2)cc1 [Compound 216] | < 5 µM | B (B (Fold Activation <250%)) | –
COc1cc(C(=O)Nc2cccc(-c3nc4cccnc4s3)c2)cc(OC)c1OC [Compound 217] | < 5 µM | A (A (Fold activation >250%)) | –
COc1cc(C(=O)Nc2cccc(-c3cn4cccnc4n3)c2)cc(OC)c1OC [Compound 218] | < 5 µM | – | A (A (Fold activation >250%))
COc1cc(C(=O)Nc2cccc(-c3nc4ncccn4c3C)c2)cc(OC)c1OC [Compound 219] | 5 to 50 µM | – | A (A (Fold activation >250%))
O=C(Nc1cccc(-c2nc3ccncc3s2)c1)c1ccco1 [Compound 221] | 5 to 50 µM | – | B (B (Fold Activation <250%))
O=C(Nc1cccc(-c2nc3ccncc3s2)c1)c1cccnc1Cl [Compound 222] | 5 to 50 µM | – | B (B (Fold Activation <250%))
O=C(Nc1cccc(-c2nc3ccncc3s2)c1)c1cccs1 [Compound 223] | < 5 µM | – | B (B (Fold Activation <250%))
Cc1cc(C(=O)Nc2cccc(-c3nc4ccncc4s3)c2)n(C(C)(C)C)n1 [Compound 228] | 5 to 50 µM | – | A (A (Fold activation >250%))
O=C(Nc1cccc(-c2nc3ccncc3s2)c1)c1ccc(-c2ccccc2)o1 [Compound 241] | < 5 µM | – | B (B (Fold Activation <250%))
O=C(Nc1cccc(-c2nc3ccncc3s2)c1)c1ccccc1Oc1ccccc1 [Compound 245] | < 5 µM | – | B (B (Fold Activation <250%))
Cn1nc(C(C)(C)C)cc1C(=O)Nc1cccc(-c2nc3ccncc3s2)c1 [Compound 246] | < 5 µM | – | B (B (Fold Activation <250%))
O=C(Nc1cccc(-c2nc3ccncc3s2)c1)c1cc(C(F)(F)F)ccc1C(F)(F)F [Compound 248] | 5 to 50 µM | – | B (B (Fold Activation <250%))
COc1ccc(C(=O)Nc2ccccc2-c2cc3ccccc3[nH]2)cc1OC [Compound 254] | < 5 µM | – | B (B (Fold Activation <250%))
COc1cc(C(=O)Nc2ccccc2-c2cc3ccccc3[nH]2)cc(OC)c1OC [Compound 255] | < 5 µM | – | B (B (Fold Activation <250%))
COC(=O)c1ccc(-n2cncn2)c(NC(=O)c2ccc(OC)c(OC)c2)c1 [Compound 258] | 5 to 50 µM | – | B (B (Fold Activation <250%))
COc1cc(C(=O)Nc2cccc(-c3nc4ccccc4[nH]3)n2)cc(OC)c1OC [Compound 259] | < 5 µM | – | A (A (Fold activation >250%))
COc1ccc(C(=O)Nc2cccc(-c3nc4ccccc4[nH]3)n2)cc1OC [Compound 260] | < 5 µM | – | A (A (Fold activation >250%))
COc1ccc(C(=O)Nc2ccc(-c3nc4ccccc4[nH]3)cc2)c(OC)c1 [Compound 262] | < 5 µM | – | B (B (Fold Activation <250%))
COc1cc(C(=O)Nc2ccc(-c3nc4ccccc4[nH]3)cc2)cc(OC)c1OC [Compound 263] | 5 to 50 µM | – | B (B (Fold Activation <250%))

Further lines, results first:

EC50 | FOLD ACT. MS [1] | FOLD ACT. MS [2] | SMILES
5 to 50 µM | – | B (B (Fold Activation <250%)) | COc1ccc(C(=O)Nc2ccccc2-c2cn3ccccc3n2)c(OC)c1 [Compound 265]
< 5 µM | – | A (A (Fold activation >250%)) | COc1ccc(C(=O)Nc2ccccc2-c2cn3ccccc3n2)cc1OC [Compound 266]
< 5 µM | – | B (B (Fold Activation <250%)) | COc1cc(C(=O)Nc2ccccc2-c2cn3ccccc3n2)cc(OC)c1OC [Compound 267]
< 5 µM | – | B (B (Fold Activation <250%)) | CN(C)c1cccc(C(=O)Nc2ccccc2-c2cn3ccccc3n2)c1 [Compound 268]
5 to 50 µM | – | A (A (Fold activation >250%)) | COc1ccc(C(=O)Nc2ccccc2-c2cn3cc(CN4CCNCC4)sc3n2)cc1OC [Compound 270]
< 5 µM | – | A (A (Fold activation >250%)) | COc1cc(C(=O)Nc2ccccc2-c2cn3cc(CN4CCNCC4)sc3n2)cc(OC)c1OC [Compound 271]
< 5 µM | – | B (B (Fold Activation <250%)) | COc1ccc(C(=O)Nc2cccc(-c3nc4cnccc4s3)c2)c(OC)c1 [Compound 272]
5 to 50 µM | – | A (A (Fold activation >250%)) | COc1cc(C(=O)Nc2cccc(-c3nc4cnccc4s3)c2)cc(OC)c1OC [Compound 273]
< 5 µM | – | B (B (Fold Activation <250%)) | COc1ccc(C(=O)Nc2ncccc2-c2nc3ccccc3[nH]2)cc1OC [Compound 276]
5 to 50 µM | – | B (B (Fold Activation <250%)) | CC(=O)Nc1ccc(S(=O)(=O)Nc2cccc(-c3nc4ccncc4s3)c2)cc1 [Compound 288]
5 to 50 µM | – | B (B (Fold Activation <250%)) | COc1ccc(S(=O)(=O)Nc2cccc(-c3nc4ccncc4s3)c2)cc1OC [Compound 289]
> 150 µM | – | – | COc1cc(C(=O)N(C)c2ccccc2-c2nc3ncccc3o2)cc(OC)c1OC [Compound 292, 3,4,5-Trimethoxy-N-methyl-N-(2-oxazolo[4,5-b]pyridin-2-yl-phenyl)-benzamide]
< 5 µM | – | A (A (Fold activation >250%)) | COc1cc(C(=O)Nc2ccccc2-c2nc3ccccc3[nH]2)cc(OC)c1OC [Compound 293]
< 5 µM | – | B (B (Fold Activation <250%)) | COc1ccc(C(=O)Nc2ccc(-c3nc4ccccc4[nH]3)cc2)cc1OC [Compound 294]
5 to 50 µM | – | B (B (Fold Activation <250%)) | COc1ccc(C(=O)Nc2cccc(-c3nc4cnccc4o3)c2)c(OC)c1 [Compound 296]
5 to 50 µM | – | B (B (Fold Activation <250%)) | COc1cc(OC)cc(C(=O)Nc2cccc(-c3nc4cnccc4o3)c2)c1 [Compound 297]
5 to 50 µM | – | B (B (Fold Activation <250%)) | COc1cc(C(=O)Nc2cccc(-c3nc4cnccc4o3)c2)cc(OC)c1OC [Compound 298]
5 to 50 µM | – | B (B (Fold Activation <250%)) | CN(C)c1ccc(C(=O)Nc2cccc(-c3nc4cnccc4o3)c2)cc1 [Compound 299]
< 5 µM | – | B (B (Fold Activation <250%)) | Cc1cc(C(=O)Nc2cccc(-c3nc4ccncc4s3)c2)no1 [Compound 304]
5 to 50 µM | – | B (B (Fold Activation <250%)) | O=C(Nc1cccc(-c2nc3ccncc3s2)c1)c1ccc(Oc2ccccc2)nc1 [Compound 306]
< 5 µM | – | A (A (Fold activation >250%)) | O=C(Nc1cccc(-c2nc3ccncc3s2)c1)c1ccc2ccccc2n1 [Compound 307]
5 to 50 µM | – | B (B (Fold Activation <250%)) | CN(C)c1cccc(C(=O)Nc2cccc(-c3nc4cnccc4o3)c2)c1 [Compound 311]
5 to 50 µM | – | B (B (Fold Activation <250%)) | COc1cc(C(=O)Nc2ccccc2-c2nc3ccccc3n2C)cc(OC)c1OC [Compound 313]
5 to 50 µM | – | B (B (Fold Activation <250%)) | COc1ccc(C(=O)Nc2ccccc2-c2nc3ccccc3n2C)cc1OC [Compound 314]
< 5 µM | – | B (B (Fold Activation <250%)) | COc1ccc(C(=O)Nc2ccccc2-c2nc3cnccc3s2)c(OC)c1 [Compound 317]
5 to 50 µM | – | B (B (Fold Activation <250%)) | COc1cc(OC)cc(C(=O)Nc2ccccc2-c2nc3cnccc3s2)c1 [Compound 318]
< 5 µM | – | B (B (Fold Activation <250%)) | COc1cc(C(=O)Nc2ccccc2-c2nc3cnccc3s2)cc(OC)c1OC [Compound 319]
< 5 µM | – | B (B (Fold Activation <250%)) | CN(C)c1ccc(C(=O)Nc2ccccc2-c2nc3cnccc3s2)cc1 [Compound 320]
< 5 µM | – | B (B (Fold Activation <250%)) | CN(C)c1cccc(C(=O)Nc2ccccc2-c2nc3cnccc3s2)c1 [Compound 321]
5 to 50 µM | – | B (B (Fold Activation <250%)) | COc1cc(OC)cc(C(=O)Nc2ccc(-c3nc4cnccc4s3)cc2)c1 [Compound 323]
